US8252748B2, “Peptide derived from neurotensin receptor 3 and use thereof in the treatment of psychiatric diseases” (Centre National de la Recherche Scientifique—CNRS, priority 2007, dated 2012)

How the values were obtained:
TREK-1 channel = target: T1, TREK-1 channel (Homo sapiens, UniProt O95069); test: Whole-cell patch clamp of TREK-1 channel activity in transfected COS-7 cells; assay type: cell-based; conditions: activation by 10 μM arachidonic acid alone (baseline 31 pA/pF)
T1 construct: expressed in transfected cells; host or cells: COS-7 cells (ATCC CRL-1651), DEAE-dextran transfection
T1 sequence (O95069 1-426): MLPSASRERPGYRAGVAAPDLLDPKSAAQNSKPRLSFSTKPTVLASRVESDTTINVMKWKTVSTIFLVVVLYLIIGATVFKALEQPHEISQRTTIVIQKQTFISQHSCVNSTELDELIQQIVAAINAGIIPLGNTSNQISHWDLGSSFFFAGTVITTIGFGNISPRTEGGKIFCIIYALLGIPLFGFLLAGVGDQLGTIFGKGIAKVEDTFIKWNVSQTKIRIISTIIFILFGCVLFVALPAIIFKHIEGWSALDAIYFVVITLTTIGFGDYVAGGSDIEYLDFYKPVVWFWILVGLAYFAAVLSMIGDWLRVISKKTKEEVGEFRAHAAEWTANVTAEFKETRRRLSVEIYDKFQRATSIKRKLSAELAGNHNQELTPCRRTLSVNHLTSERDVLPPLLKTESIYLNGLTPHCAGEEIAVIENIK
Method: All the experiments for measuring the effect of the propeptide were conducted on COS-7 cells (cell line derived from kidney fibroblasts of African green monkey Cercopithecus aethiops). These cells are sown at a density of 20 000 cells/dish with diameter of 35 mm, 24 hours before being transfected by the DEAE-dextran method with 1 μg of pIRES-EGFP-TREK-1 plasmid. Measurements of current were taken 48 to 72 hours after transfection.
Culture of the COS-7 cells. The COS-7 cells (ATCC reference: CRL-1651) are cultivated in DMEM medium (Gibco)/10% fetal calf serum (FCS, ICN), at 37° C. in the presence of 5% CO2.
Transfection using DEAE dextran. On day 1, the COS-7 cells are sown at 20 000 cells per 35-mm diameter dish containing 2 ml of culture medium. On day 2, the medium is removed and the cells are covered with 200 μl of PBS (Gibco) containing 1 μg of pIRES-EGFP-TREK-1 plasmid and 100 μg of DEAE-dextran (Sigma) then placed at 37° C./5% CO2. After incubation for 30 minutes, 2 ml of medium DMEM/10% NuSerum/80 μM chloroquin is added. After 3 hours, the medium is replaced with 2 ml of DMEM/10% FCS and the cells are incubated for 48 to 72 hours before being measured by electrophysiological methods.
Electrophysiological measurements: all the measurements are taken at room temperature, i.e. at 21-22° C. The cells that were transfected by the plasmid are detected from the fluorescence emitted by the EGFP after excitation at 480 nm.
The whole-cell patch clamp technique was used for measuring the activity of the TREK-1 channels. The equipment used is the RK 400 patch-clamp amplifier (Axon Instruments, U.S.A.). The patch pipettes with resistance of 1.3 to 8 MΩ are prepared from capillaries of borosilicate glass and are filled with a solution of 155 mM KCl, 3 mM MgCl2, 5 mM EGTA, 10 mM HEPES/KOH pH 7.2.
The cell culture medium is replaced with a solution of 150 mM NaCl, 5 mM KCl, 3 mM MgCl2, 1 mM CaCl2, 10 HEPES/NaOH pH 7.4 containing 10 mM tetraethyl ammonium chloride, 3 mM of 4-aminopyridin. The cells are perfused continuously with this solution. The rest potential of the membrane of the measured cell is fixed at −80 mV.
The variations in voltage are obtained either with a continuous ramp (from −100 to +50 mV) or by potential jumps of 10 mV (from −100 to +40 mV, 1.5 second per jump).
The data obtained were analyzed with the Pclamp software. The currents described in the appended FIG. 2B were obtained at 0 mV, the results expressed are the mean values±standard deviation. The IC50 value was obtained by plotting the experimental data with a sigmoidal function.
The activity of the channel is then measured by the patch-clamp technique in whole-cell configuration as described above.

[1] = test system: hippocampus progenitor cells; test: Neurogenesis (BrdU-positive cells) after 4 days of treatment; assay type: in vivo, mouse; conditions: fluoxetine 3 mg/kg
Excerpt: In contrast to many antidepressants now commonly used, the efficacy of action of the peptide of the invention is very rapid. […] 93: 3908-3913 (1996) (28) and with a considerable decrease in neurogenesis in the dentate gyrus (Gould, E., Tanapat, P., McEwen, B. S., Flugge, G., Fuchs, E. “Proliferation of granule cell precursors in the dentate gyrus of adult monkeys is diminished by stress” Proc Natl Acad Sci USA, 95: 3168-3171 (1998)) (29).
The experimental protocol is that described in the material and methods (Supplement) of the work of Santarelli et al., “Requirement of hippocampal neurogenesis for the behavioral effects of antidepressants” Science, 301: 805-809 (2003) (24) apart from the duration of treatment, which is four days.
The increase was evaluated using the one-factor ANOVA test followed by the post-hoc test.

mouse (C57Black/J) = test: Conditioned motility suppression test (CMST); assay type: in vivo; conditions: fluoxetine 3 mg/kg; 30 min after injection
Excerpt: The inventors conducted three types of behavioral experiments that are regarded as classical for determining the antidepressant activity of a substance (Nestler E. J., Gould E., Manji H., Buncan M., Duman R. S., Greshenfeld H. K., Hen, R. et al. “Preclinical models: status of basic research in depression” Biol Psychiatry. 15, 503-528 (2002) (20) and Cryan, J. & Holmes, A. “The ascent of mouse: advances in modeling human depression and anxiety” Nat Rev Drug Discov. 4, 775-790 (2005) (21)). The effects of the propeptide of the present invention were compared with those of the saline solution in which it is dissolved and with those of fluoxetine, one of the most-used antidepressants in clinical practice. The mouse strain used is C57Black/J strain. TREK-1^−/− mice were also measured in these various tests.
In the next two tests, the propeptide of the present invention was administered by the IV route at a rate of 100 μl at 1 μM per animal.
C. Conditioned Motility Suppression Test (CMST) (see Daugé, V., Sebret, A., Beslot, F., Matsui, T., & Rogues B. “Behavioral profile of CCK2 receptor-deficient mice” Neuropsychopharmacol; 25: 690-698 (2001) (23).
The experiment consists of conditioning the mouse on day 1, and measuring the effects of the substances on day 2.
On day 1, each mouse is placed in a box where the floor is a metal grille connected to an electric stimulator. […]

SMILES	current density at 0 mV (TREK-1 channel)	neurogenesis relative to physiological saline [1]	motility relative to untreated shocked mice (mouse (C57Black/J))
CCCCC/C=C\C/C=C\C/C=C\C/C=C\CCCC(=O)O [arachidonic acid, reference compound]	130 pA/pF	–	–
CNCCC(Oc1ccc(C(F)(F)F)cc1)c1ccccc1 (stereo not drawn) [fluoxetine, reference compound]	–	identical to that induced by the injection of physiological saline solution	5 times greater
